Measurements from patent US20110230493A1, “1-OXA-8-Azaspiro [4,5] Decabe-8-Carboxamide Compounds as FAAH Inhibitors” (Pfizer Inc., priority 2008, published 2011).

Assays:
human FAAH = molecular target: T1, human FAAH (Homo sapiens, UniProt O00519); assay: FAAH assay, human FAAH enzyme inactivation (kinact/Ki); format: biochemical; conditions: oleamide 50 μM, 30° C.; for kinact/KI: pH 7.4, in vitro, read-out: hFAAH kinact/Ki; for hFAAH kinact/Ki: in vitro, pH 7.4
T1 construct: made in house; host or cells: E. coli
T1 sequence (O00519 1-579): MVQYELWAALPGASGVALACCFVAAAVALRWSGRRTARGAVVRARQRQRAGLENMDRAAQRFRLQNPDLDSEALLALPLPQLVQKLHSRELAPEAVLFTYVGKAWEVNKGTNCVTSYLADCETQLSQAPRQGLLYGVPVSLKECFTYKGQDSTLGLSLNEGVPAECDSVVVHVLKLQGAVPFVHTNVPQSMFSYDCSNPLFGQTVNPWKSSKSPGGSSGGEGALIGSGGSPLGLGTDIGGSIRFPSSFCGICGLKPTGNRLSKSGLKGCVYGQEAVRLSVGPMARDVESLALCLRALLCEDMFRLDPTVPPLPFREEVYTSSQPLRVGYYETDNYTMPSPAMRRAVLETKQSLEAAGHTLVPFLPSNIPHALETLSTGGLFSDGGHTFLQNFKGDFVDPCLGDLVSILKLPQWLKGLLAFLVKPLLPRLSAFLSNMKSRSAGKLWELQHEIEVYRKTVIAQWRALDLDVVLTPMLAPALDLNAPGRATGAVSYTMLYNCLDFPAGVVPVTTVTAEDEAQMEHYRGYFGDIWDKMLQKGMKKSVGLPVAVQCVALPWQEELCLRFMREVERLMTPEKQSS
Description: (§1) The FAAH assay was carried out in 384-well clear polystyrene plates (Evergreen Scientific) in a total volume of 50 μl per well in a manner similar to that described by Mileni et al., Proc. Nat. Acad. Sci. 2008, 105, 12820-12824. All percents are by volume. Serial dilutions of compound were initially prepared in 100% DMSO, and then diluted two-fold into HPLC-grade H2O to give 50% DMSO. To each well, was placed the reaction mixture (40 μl) containing 1-4 nM FAAH, 50 mM NaPi, pH 7.4, 3 mM α-ketoglutarate, 0.15 mM NADH, 7.5 U/ml glutamate dehydrogenase, 2 mM ADP, 1 mM EDTA, and 0.1% Triton X-100 (The concentration shown for each component is the final concentration in the assay). To this mixture, was added 5 μl of a compound of Examples 1 to 101 at various concentrations in 50% DMSO (or 5 μl 50% DMSO for controls). This was immediately followed by the addition of 5 μl oleamide (500 μM) dissolved in 75% EtOH/25% DMSO and the reaction mixture was mixed for 1.5 min. The final concentrations of DMSO and EtOH in the assay were each 7.5%. The reactions were incubated at 30° C. and the absorbance at 340 nm was collected over a period of 90 min with readings taken in 30-second intervals using SpectraMax Plus^384 Microplate Spectrophotometer (Molecular Devices, Sunnyvale, Calif.). The human FAAH and rat FAAH used in the assay was prepared as described in the patent application WO 2006/067613 using wild-type E. coli cells transformed in St. Louis, Mo., U.S.A. The purity of the enzyme was greater than 98% based on an analysis by SDS-polyacrylamide gel electrophoresis followed by Coomassie Blue staining.
(§2) Reaction progress curves were corrected for the non-enzymatic oxidation of NADH by subtraction of absorbancies at each time point obtained from control reactions containing no FAAH enzyme. The loss of enzyme activity as a function of time is well-described by the following mathematical equation (1) for a mono-exponential decay: […]
(§3) where At represents the absorbance at time t, A0 represents the absorbance at time zero, and C represents a constant. Observed rates of enzyme inactivation (kobs) were determined from the non-linear reaction progress curves by fitting the corrected absorbancies to an equation for a mono-exponential decay using the third-party Microsoft Excel plug-in, XLfit (IDBS Limited). Secondary plots of kobs vs. inhibitor concentration were prepared from kobs values obtained from progress curves. Second-order rates for enzyme inactivation, expressed as kinact/Ki (M^−1 s^−1), were calculated from the slopes from linear regression analysis of the secondary plot of kobs vs. inhibitor concentration as defined in following equation (2), where [I]<<Ki:
(§4) The concentration of substrate in the assay was equal to the Km for oleamide of 50 μM. Therefore, reported kinact/Ki values are obtained by multiplying resulting slopes by a factor of two (i.e. slope=kinact/(Ki*2)).
(§5) Table 1, below, lists human FAAH (hFAAH) and rat FAAH (rFAAH) enzyme inhibition values for Examples 1-101 as a ratio of kinact/Ki (M^−1 s^−1).

rat FAAH = molecular target: T2, rat FAAH (Rattus norvegicus, UniProt P97612); assay: FAAH assay, rat FAAH enzyme inactivation (kinact/Ki); format: biochemical; conditions: oleamide 50 μM, 30° C.; for kinact/KI: pH 7.4, in vitro, read-out: rFAAH kinact/Ki; for rFAAH kinact/Ki: in vitro, pH 7.4
T2 construct: made in house; host or cells: E. coli
T2 sequence (P97612 1-579): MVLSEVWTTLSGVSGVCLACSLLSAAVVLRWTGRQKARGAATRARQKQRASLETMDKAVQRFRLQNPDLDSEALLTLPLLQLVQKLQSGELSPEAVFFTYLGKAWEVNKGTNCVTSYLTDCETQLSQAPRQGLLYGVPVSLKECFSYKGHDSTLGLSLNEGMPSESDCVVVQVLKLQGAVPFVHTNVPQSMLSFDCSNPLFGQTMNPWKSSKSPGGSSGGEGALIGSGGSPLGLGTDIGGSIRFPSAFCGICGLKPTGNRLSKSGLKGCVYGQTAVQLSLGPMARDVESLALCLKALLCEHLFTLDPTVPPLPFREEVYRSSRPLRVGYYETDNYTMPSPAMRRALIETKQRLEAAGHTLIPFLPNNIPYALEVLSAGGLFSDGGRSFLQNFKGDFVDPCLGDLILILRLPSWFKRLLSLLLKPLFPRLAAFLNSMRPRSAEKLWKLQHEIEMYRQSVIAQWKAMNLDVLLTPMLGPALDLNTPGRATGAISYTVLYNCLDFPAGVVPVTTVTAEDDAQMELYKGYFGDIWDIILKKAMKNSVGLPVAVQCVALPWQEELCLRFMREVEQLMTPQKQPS
Description: as §1, §2, §3, §4, §5

Male Sprague-Dawley Rats = assay: In vivo Complete Freund's Adjuvant (CFA) efficacy assay, inhibition of allodynia; parameters: species or system rat; key: (+) indicates the test compound was determined to be efficacious at 3 mpk, oral dosing; (−) indicates the test compound was determined to not be efficacious at 3 mpk, oral dosing; conditions: 3 mpk, oral dosing; PWT four hours postdose; p < 0.05 vs vehicle group
Description: For additional information on the CFA efficacy assay, see Jayamanne et al., Brit. J. Pharmacol. 2006, 147, 281-288. Experiments were performed on adult Male Sprague-Dawley Rats (200 g-250 g). Inflammation was induced in the left hindpaw of the rat by an intra-plantar injection of 150 uL Complete Freund's Adjuvant (CFA) (SIGMA F5881). The CFA injection immediately induces local inflammation, paw swelling, and pain that persists for at least two weeks post-injection. Baseline paw withdrawal threshold (PWT) was measured to determine the percent inhibition of allodynia using a set of Von Frey Hairs on day 4 post injection as illustrated by the Dixon Up and Down Method (W. J. Dixon, Ann. Rev. Pharmacol. Toxicol. 1980, 20:441-462). […] Following Dose administration PWT threshold was evaluated again at four hours postdose. The Sprague-Dawley rats used in this assay were purchased from Harlan, 8520 Allison Pointe Blvd., Indianapolis, Ind., 46250, U.S.A. Sprague-Dawley rats are an outbred breed of albino rats first produced by the Sprague Dawley farms in Madison, Wis., U.S.A.
Percent Inhibition of Allodynia was determined by the formula: […]
ΔPWT measurements were averaged for each treatment group and statistical comparisons between groups were made using ANOVA and Dunnett's two-tailed test. […]

Row | kinact/KI (human FAAH) [M⁻¹ s⁻¹] | kinact/KI (rat FAAH) [M⁻¹ s⁻¹] | hFAAH kinact/Ki (human FAAH) [M⁻¹ s⁻¹] | rFAAH kinact/Ki (rat FAAH) [M⁻¹ s⁻¹] | Compound | CFA Efficacy (Male Sprague-Dawley Rats)
1 | 16800 | 21900 | – | – | Cc1noc(NC(=O)N2CCC3(CC2)C[C@H](c2ccc(OCc4ccc(Cl)cc4)cc2)CO3)c1C [Example 49, (3R)-3-{4-[(4-chlorobenzyl)oxy]phenyl}-N-(3,4-dimethylisoxazol-5-yl)-1-oxa-8-azaspiro[4.5]decane-8-carboxamide] | (−)
2 | 6240 | 7130 | – | – | Cc1noc(NC(=O)N2CCC3(CC2)CC(c2ccc(OCc4cccc(Cl)c4)c(Cl)c2)CO3)c1C (single isomer, unassigned) [Example 45, 3-{3-chloro-4-[(3-chlorobenzyl)oxy]phenyl}-N-(3,4-dimethylisoxazol-5-yl)-1-oxa-8-azaspiro[4.5]decane-8-carboxamide] | (+)
3 | 2040 | 1110 | – | – | Cc1noc(NC(=O)N2CCC3(CC2)CC(c2cccc(-c4ccc(F)cc4)c2)CO3)c1C (racemic) [Example 54, (3RS)-N-(3,4-dimethylisoxazol-5-yl)-3-(4′-fluorobiphenyl-3-yl)-1-oxa-8-azaspiro[4.5]decane-8-carboxamide] | –
4 | 4120 | 7580 | – | – | Cc1noc(NC(=O)N2CCC3(CC2)CC(c2ccc(OCc4ccc(C(F)(F)F)cn4)cc2)CO3)c1C (racemic) [Example 32, (3RS)-N-(3,4-dimethylisoxazol-5-yl)-3-(4-{[5-(trifluoromethyl)pyridin-2-yl]methoxy}phenyl)-1-oxa-8-azaspiro[4.5]decane-8-carboxamide] | –

Further lines, the molecule ahead of its results:

Row | Compound | kinact/KI (human FAAH) [M⁻¹ s⁻¹] | kinact/KI (rat FAAH) [M⁻¹ s⁻¹] | hFAAH kinact/Ki (human FAAH) [M⁻¹ s⁻¹] | rFAAH kinact/Ki (rat FAAH) [M⁻¹ s⁻¹] | CFA Efficacy (Male Sprague-Dawley Rats)
5 | Cc1noc(NC(=O)N2CCC3(CC2)CC(c2ccc(OCc4ccccc4Cl)c(Cl)c2)CO3)c1C (single isomer, unassigned) [Example 43, 3-{3-chloro-4-[(2-chlorobenzyl)oxy]phenyl}-N-(3,4-dimethylisoxazol-5-yl)-1-oxa-8-azaspiro[4.5]decane-8-carboxamide] | – | – | 3620 | 5870 | (+)
6 | Cc1noc(NC(=O)N2CCC3(CC2)CC(c2noc(-c4ccc(OC(F)(F)F)cc4)n2)CO3)c1C (single isomer, unassigned) [Example 73, N-(3,4-dimethylisoxazol-5-yl)-3-{5-[4-(trifluoromethoxy)phenyl]-1,2,4-oxadiazol-3-yl}-1-oxa-8-azaspiro[4.5]decane-8-carboxamide] | – | – | 2150 | 1340 | (+)
7 | Cn1nnnc1NC(=O)N1CCC2(CC1)C[C@H](c1cccc(-c3ccc(F)cc3)c1)CO2 [Example 96, (3R)-3-(4′-fluorobiphenyl-3-yl)-N-(1-methyl-1H-tetrazol-5-yl)-1-oxa-8-azaspiro[4.5]decane-8-carboxamide] | 26300 | 2010 | – | – | (+)
8 | O=C(Nc1cccnn1)N1CCC2(CC1)CC(c1cccc(Oc3ccc(Cl)cn3)c1)CO2 (racemic) [Example 4, (3RS)-3-{3-[(5-chloropyridin-2-yl)oxy]phenyl}-N-pyridazin-3-yl-1-oxa-8-azaspiro[4.5]decane-8-carboxamide] | 2910 | 3380 | – | – | –
9 | Cc1noc(NC(=O)N2CCC3(CC2)CC(c2ccc(OCc4ccc(F)cc4)c(Cl)c2)CO3)c1C (racemic) [Example 19, (3RS)-3-{3-chloro-4-[(4-fluorobenzyl)oxy]phenyl}-N-(3,4-dimethylisoxazol-5-yl)-1-oxa-8-azaspiro[4.5]decane-8-carboxamide] | 6710 | 7120 | – | – | –
10 | Cc1noc(NC(=O)N2CCC3(CC2)CC(c2ccc(OCc4cc(F)ccc4F)cc2)CO3)c1C (racemic) [Example 31, (3RS)-3-{4-[(2,5-difluorobenzyl)oxy]phenyl}-N-(3,4-dimethylisoxazol-5-yl)-1-oxa-8-azaspiro[4.5]decane-8-carboxamide] | 3580 | 3220 | – | – | –
11 | Cc1noc(NC(=O)N2CCC3(CC2)CC(F)(c2cc(F)cc(Cl)c2)CO3)c1C (racemic) [Example 100, (3RS)-3-(3-chloro-5-fluorophenyl)-N-(3,4-dimethylisoxazol-5-yl)-3-fluoro-1-oxa-8-azaspiro[4.5]decane-8-carboxamide] | 871 | 1120 | – | – | –
12 | O=C(Nc1cccnc1)N1CCC2(CC1)CC(c1cccc(Oc3ccc(Br)cn3)c1)CO2 (racemic) [Example 6, (3RS)-3-{3-[(5-bromopyridin-2-yl)oxy]phenyl}-N-pyridin-3-yl-1-oxa-8-azaspiro[4.5]decane-8-carboxamide] | 2320 | 1750 | – | – | –
13 | Cc1noc(NC(=O)N2CCC3(CC2)CC(c2ccc4c(c2)OCO4)CO3)c1C (racemic) [Example 24, (3RS)-3-(1,3-benzodioxol-5-yl)-N-(3,4-dimethylisoxazol-5-yl)-1-oxa-8-azaspiro[4.5]decane-8-carboxamide] | 788 | 431 | – | – | –
